The values below come from BindingDB's records for doi:10.1021/jm00160a026 (1986).

What is called IC50 is the concentration needed to halve the response being measured. Read a high IC50 as weaker potency.

In this assay the target is Angiotensin-converting enzyme (Cavia porcellus). Briefly: Inhibition of guinea pig angiotensin I converting enzyme.

In the case of `CCOC(=O)C(CCc1ccccc1)N(C)C(C)C(=O)N1Cc2ccccc2CC1C(=O)O` (centres undefined), the IC50 was more than 10000 nM. To `CCOC(=O)C(CCc1ccccc1)NC(C)C(=O)N1Cc2ccccc2CC1C(=O)OCC` (centres undefined) belongs 440 nM; to `CCOC(=O)C(CCc1ccccc1)NC(C)C(=O)N1Cc2cc(OC)c(OC)cc2CC1C(=O)OCc1ccccc1` (centres undefined), 300 nM; to `CCOC(=O)[C@H](CCc1ccccc1)N[C@@H](C)C(=O)N1Cc2ccccc2[C@@H]1C(=O)O`, more than 1000 nM.

`CC(NC(CCc1ccccc1)C(=O)O)C(=O)N1CCc2ccccc2C1C(=O)O` (centres undefined) returned an IC50 of 5.8 nM. The value for `CC(=O)SCC(C)C(=O)N1CCc2ccccc2C1` (centres undefined) was 49000 nM; that for `CC(=O)SCCC(=O)N1Cc2ccccc2C1C(=O)O` (centres undefined) was 22000 nM. `O=C(O)C1c2ccccc2CN1C(=O)CCS` (centres undefined): it took 58000 nM to reach half-maximal inhibition (IC50). The compound `CC(CS)C(=O)N1CCc2ccccc2C1` (centres undefined) displayed an IC50 of 48000 nM. This IC50 and that of the compound before are within 1.5-fold of each other. As for `CC(NC(CCc1ccccc1)C(=O)O)C(=O)N1Cc2ccccc2C1C(=O)O` (centres undefined), the IC50 is 3.1 nM. The value for `CCOC(=O)[C@H](CCc1ccccc1)N[C@@H](C)C(=O)N1Cc2ccccc2[C@H]1C(=O)O` was 44 nM. To `CC(=O)SCC(C)C(=O)N1Cc2ccccc2CC1C(=O)O` (racemic) belongs 130 nM; to `CCOC(=O)C(CCc1ccccc1)NC(C)C(=O)N1Cc2cc(OC)c(OC)cc2CC1C(=O)OCC` (centres undefined), 520 nM. The value for `CC(=O)SCC(C)C(=O)N1Cc2ccccc2C1C(=O)O` (mixture of isomers) was 24000 nM.
